“Also recorded” adds a separate entry of the source.
Legend:
GluN1/2D receptors = GluN1/2D receptors (Rattus norvegicus, UniProt P35439+Q62645); format: cell-based
GluN1/2C receptors = GluN1/2C receptors (Rattus norvegicus, UniProt P35439+Q00961); format: cell-based
GluN1/2A receptors [1] = biological target: GluN1/2A receptors (Rattus norvegicus, UniProt P35439+Q00959); format: cell-based
GluN1/2A receptors [2] = biological target: GluN1/2A receptors (Rattus norvegicus, UniProt Q00959); format: cell-based; details: ratio est Ki GluN1/2B / GluN1/2A
GluN1/2B receptors = GluN1/2B receptors (Rattus norvegicus, UniProt P35439+Q00960); format: cell-based
GluN1/2A = details: cited from earlier work
[3] = Ex vivo brain biodistribution and autoblockade of [11C]11e; format: in vivo, CD-1 mice; details: 15–75 min uptake, IV, mice (Figure 4A,B)
In vivo PET-CT imaging = test: In vivo PET-CT imaging; design: species or system female athymic nude mice; details: intravenous bolus, dynamic PET, mice
[4] = Ex vivo brain autoradiography; format: in vivo, female athymic nude mice; details: serial brain sections

GluN1/2C receptors, sequence (Q00961 20-1237, other chains not shown): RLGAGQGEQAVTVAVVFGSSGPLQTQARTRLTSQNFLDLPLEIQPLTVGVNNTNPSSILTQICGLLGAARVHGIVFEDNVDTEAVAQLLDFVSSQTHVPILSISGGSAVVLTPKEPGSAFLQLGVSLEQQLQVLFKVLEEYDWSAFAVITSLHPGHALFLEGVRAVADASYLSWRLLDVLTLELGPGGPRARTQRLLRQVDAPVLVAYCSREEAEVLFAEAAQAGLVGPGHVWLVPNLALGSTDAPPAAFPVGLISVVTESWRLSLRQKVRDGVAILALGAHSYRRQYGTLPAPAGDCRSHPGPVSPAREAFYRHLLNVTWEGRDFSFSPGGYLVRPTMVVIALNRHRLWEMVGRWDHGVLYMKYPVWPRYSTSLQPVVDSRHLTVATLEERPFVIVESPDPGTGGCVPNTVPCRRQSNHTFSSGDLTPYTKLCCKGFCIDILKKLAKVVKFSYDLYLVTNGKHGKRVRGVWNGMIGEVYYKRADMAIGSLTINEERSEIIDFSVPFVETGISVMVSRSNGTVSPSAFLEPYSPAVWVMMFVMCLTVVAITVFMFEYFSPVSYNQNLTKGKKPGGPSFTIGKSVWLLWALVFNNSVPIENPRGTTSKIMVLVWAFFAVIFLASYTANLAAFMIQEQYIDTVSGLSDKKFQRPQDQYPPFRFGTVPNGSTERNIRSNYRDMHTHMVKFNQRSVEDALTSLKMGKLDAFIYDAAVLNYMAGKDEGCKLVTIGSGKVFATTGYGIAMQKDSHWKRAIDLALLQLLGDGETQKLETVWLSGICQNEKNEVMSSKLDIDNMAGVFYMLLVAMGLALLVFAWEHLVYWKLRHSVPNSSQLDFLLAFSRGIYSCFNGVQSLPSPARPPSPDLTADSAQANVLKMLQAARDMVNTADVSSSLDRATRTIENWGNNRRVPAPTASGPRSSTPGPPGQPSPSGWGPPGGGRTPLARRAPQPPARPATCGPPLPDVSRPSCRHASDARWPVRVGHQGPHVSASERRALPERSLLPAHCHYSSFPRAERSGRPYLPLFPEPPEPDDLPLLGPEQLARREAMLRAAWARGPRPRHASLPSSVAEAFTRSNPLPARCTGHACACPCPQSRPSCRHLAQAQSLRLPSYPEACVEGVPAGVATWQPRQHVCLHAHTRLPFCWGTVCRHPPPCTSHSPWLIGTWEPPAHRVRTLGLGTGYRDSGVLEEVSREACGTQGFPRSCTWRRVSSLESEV
GluN1/2B receptors, sequence (Q00960 27-1482, other chains not shown): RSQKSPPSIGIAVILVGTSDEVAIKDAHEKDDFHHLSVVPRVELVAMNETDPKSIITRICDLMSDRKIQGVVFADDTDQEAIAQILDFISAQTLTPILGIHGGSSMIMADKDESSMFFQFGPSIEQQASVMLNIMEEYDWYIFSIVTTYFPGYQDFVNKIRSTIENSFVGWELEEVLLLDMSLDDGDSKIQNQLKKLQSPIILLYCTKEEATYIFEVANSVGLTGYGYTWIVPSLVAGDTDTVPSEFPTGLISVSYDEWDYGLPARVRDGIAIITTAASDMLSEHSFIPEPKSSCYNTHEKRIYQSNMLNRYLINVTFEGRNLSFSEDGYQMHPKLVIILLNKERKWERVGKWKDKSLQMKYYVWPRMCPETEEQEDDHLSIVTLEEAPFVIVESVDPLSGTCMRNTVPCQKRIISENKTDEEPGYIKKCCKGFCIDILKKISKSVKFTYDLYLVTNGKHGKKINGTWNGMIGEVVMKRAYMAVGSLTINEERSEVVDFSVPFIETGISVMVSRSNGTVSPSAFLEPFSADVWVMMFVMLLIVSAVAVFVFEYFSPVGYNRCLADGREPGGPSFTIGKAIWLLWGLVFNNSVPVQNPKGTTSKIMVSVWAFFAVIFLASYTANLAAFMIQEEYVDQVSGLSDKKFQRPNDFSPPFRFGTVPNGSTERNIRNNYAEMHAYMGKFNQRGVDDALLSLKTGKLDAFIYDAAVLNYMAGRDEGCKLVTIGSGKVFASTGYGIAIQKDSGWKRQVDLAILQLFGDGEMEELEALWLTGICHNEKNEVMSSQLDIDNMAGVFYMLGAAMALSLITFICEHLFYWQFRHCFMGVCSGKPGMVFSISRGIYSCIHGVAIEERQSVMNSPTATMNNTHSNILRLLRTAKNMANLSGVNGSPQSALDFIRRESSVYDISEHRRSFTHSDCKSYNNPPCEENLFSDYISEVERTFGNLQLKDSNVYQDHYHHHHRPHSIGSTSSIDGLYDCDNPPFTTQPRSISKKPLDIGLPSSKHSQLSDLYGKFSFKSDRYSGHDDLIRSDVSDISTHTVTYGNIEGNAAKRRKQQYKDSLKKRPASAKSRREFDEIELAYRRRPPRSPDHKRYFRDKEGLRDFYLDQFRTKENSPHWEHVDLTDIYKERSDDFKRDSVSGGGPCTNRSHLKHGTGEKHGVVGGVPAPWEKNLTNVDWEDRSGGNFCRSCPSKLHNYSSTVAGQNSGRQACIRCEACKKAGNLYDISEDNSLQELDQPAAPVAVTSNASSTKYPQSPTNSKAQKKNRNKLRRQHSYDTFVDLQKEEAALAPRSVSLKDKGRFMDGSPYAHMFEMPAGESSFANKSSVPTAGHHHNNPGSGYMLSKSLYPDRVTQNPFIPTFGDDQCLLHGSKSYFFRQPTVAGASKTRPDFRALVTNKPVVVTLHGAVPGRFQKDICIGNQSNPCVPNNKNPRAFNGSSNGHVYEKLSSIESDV
GluN1/2A receptors (Rattus norvegicus, UniProt P35439+Q00959), sequence (Q00959 23-1464, other chains not shown): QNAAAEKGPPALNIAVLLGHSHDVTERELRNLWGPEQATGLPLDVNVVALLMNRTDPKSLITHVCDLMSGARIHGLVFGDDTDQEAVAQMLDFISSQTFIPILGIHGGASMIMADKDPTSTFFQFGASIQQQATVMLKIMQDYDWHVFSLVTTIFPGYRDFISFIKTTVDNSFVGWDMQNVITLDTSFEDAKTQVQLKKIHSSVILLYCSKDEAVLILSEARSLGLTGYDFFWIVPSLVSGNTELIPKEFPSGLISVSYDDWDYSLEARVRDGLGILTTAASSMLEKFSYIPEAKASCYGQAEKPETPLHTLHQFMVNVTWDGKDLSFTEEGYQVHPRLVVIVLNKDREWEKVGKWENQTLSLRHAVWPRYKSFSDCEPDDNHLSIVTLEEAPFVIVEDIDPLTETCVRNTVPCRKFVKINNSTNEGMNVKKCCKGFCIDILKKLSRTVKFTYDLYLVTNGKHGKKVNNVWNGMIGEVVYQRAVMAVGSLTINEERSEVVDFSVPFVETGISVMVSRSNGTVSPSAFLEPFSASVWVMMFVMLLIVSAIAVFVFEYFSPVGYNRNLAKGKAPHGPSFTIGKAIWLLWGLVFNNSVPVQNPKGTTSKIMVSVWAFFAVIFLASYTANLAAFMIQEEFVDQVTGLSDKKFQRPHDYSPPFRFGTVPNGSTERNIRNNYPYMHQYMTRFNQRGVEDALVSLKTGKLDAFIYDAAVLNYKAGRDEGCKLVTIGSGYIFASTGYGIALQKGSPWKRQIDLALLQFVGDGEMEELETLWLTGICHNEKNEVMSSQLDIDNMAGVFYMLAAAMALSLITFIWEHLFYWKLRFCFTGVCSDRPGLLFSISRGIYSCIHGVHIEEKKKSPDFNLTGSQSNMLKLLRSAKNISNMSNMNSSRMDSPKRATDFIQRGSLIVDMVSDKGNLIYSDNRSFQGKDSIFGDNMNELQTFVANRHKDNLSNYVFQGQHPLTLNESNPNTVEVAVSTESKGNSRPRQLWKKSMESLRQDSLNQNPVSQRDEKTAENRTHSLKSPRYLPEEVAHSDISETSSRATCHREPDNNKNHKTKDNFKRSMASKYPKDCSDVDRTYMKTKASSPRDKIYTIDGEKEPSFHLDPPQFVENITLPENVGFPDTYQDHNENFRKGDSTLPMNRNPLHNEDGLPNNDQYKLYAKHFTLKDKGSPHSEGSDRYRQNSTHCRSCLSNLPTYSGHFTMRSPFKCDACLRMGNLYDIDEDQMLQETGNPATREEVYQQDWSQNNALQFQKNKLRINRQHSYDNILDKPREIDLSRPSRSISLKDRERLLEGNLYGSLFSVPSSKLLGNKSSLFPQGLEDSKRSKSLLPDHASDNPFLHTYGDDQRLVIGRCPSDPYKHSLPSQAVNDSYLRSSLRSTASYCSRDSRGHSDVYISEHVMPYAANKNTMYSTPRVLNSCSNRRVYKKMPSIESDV

Row | SMILES | IC50 (GluN1/2D receptors) [µM] | Ki (GluN1/2D receptors) [µM] | IC50 (GluN1/2C receptors) [µM] | Ki (GluN1/2C receptors) [µM] | IC50 (GluN1/2A receptors [1]) [µM] | Ki (GluN1/2A receptors [1]) [µM] | estimated Ki fold higher at GluN1/2B compared to GluN1/2A (selectivity) (GluN1/2A receptors [2]) [fold] | IC50 (GluN1/2B receptors) [µM] | Ki (GluN1/2B receptors) [µM] | also measured
1 | C[C@H](N[C@@H](c1cccc2[nH]c(=O)c(=O)[nH]c12)P(=O)(O)O)c1ccc(Br)cc1 [NVP-AAM077, [(R)-[(S)-1-(4-bromophenyl)-ethylamino]-(2,3-dioxo-1,2,3,4-tetrahydroquinoxalin-5-yl)-methyl]-phosphonic acid] | – | – | – | – | – | – | – | – | – | binding affinity fold higher for GluN1/2A compared to GluN1/2B (GluN1/2A): 5.2 fold
2 | COC(=O)C1=NN(c2ccc([11CH3])cc2)[C@@H](C[C@@H](NC(=O)OC(C)(C)C)C(=O)OC)C1 [[^11C]11e, Methyl (S)-5-((R)-2-((tert-Butoxycarbonyl)amino)-3-methoxy-3-oxopropyl)-1-(4-[^11C]methylphenyl)-4,5-dihydro-1H-pyrazole-3-carboxylate] | – | – | – | – | – | – | – | – | – | uptake in brain regions [3]: below 1.5 % ID/g
3 | COC(=O)C1=NN(c2ccc([124I])cc2)[C@@H](C[C@@H](N)C(=O)OC)C1 [[^124I]11d, Methyl (S)-5-((R)-2-Amino-3-methoxy-3-oxopropyl)-1-(4-[^124I]-iodophenyl)-4,5-dihydro-1H-pyrazole-3-carboxylate] | – | – | – | – | – | – | – | – | – | brain uptake by in vivo PET imaging (In vivo PET-CT imaging): below the threshold of detection; also recorded: no observable brain uptake
4 | N[C@H](C[C@H]1CC(C(=O)O)=NN1c1ccc([125I])cc1)C(=O)O [[^125I]4d, (S)-5-((R)-2-Amino-2-carboxyethyl)-1-(4-[^125I]iodophenyl)-4,5-dihydro-1H-pyrazole-3-carboxylic Acid] | – | – | – | – | – | – | – | – | – | brain uptake (ex vivo autoradiography) ([4]; 60 min conscious uptake): no evidence of brain uptake
5 | COC(=O)C1=NN(c2ccc([125I])cc2)[C@@H](C[C@@H](N)C(=O)OC)C1 [[^125I]11d, Methyl (S)-5-((R)-2-Amino-3-methoxy-3-oxopropyl)-1-(4-[^125I]-iodophenyl)-4,5-dihydro-1H-pyrazole-3-carboxylate] | – | – | – | – | – | – | – | – | – | brain uptake (ex vivo autoradiography) ([4]; 40 min conscious uptake): brain region-selective uptake

Second part, led by results:

Row | IC50 (GluN1/2D receptors) [µM] | Ki (GluN1/2D receptors) [µM] | IC50 (GluN1/2C receptors) [µM] | Ki (GluN1/2C receptors) [µM] | IC50 (GluN1/2A receptors [1]) [µM] | Ki (GluN1/2A receptors [1]) [µM] | estimated Ki fold higher at GluN1/2B compared to GluN1/2A (selectivity) (GluN1/2A receptors [2]) [fold] | IC50 (GluN1/2B receptors) [µM] | Ki (GluN1/2B receptors) [µM] | SMILES | also measured
6 | 0.92 ± 0.02 | 0.29 ± 0.01 | 0.92 ± 0.02 | 0.23 ± 0.01 | 0.16 ± 0.01 | 0.043 ± 0.002 | 7.6 | 0.86 ± 0.01 | 0.33 ± 0.04 | N[C@H](C[C@H]1CC(C(=O)O)=NN1c1ccc(F)cc1)C(=O)O [4a, (S)-5-((R)-2-Amino-2-carboxyethyl)-1-(4-fluorophenyl)-4,5-dihydro-1H-pyrazole-3-carboxylic Acid] | –
7 | 0.52 ± 0.02 | 0.16 ± 0.01 | 0.18 ± 0.01 | 0.044 ± 0.002 | 0.098 ± 0.004 | 0.027 ± 0.001 | 4.0 | 0.28 ± 0.02 | 0.11 ± 0.01 | N[C@H](C[C@H]1CC(C(=O)O)=NN1c1ccc(Cl)cc1)C(=O)O [4b, (S)-5-((R)-2-Amino-2-carboxyethyl)-1-(4-chlorophenyl)-4,5-dihydro-1H-pyrazole-3-carboxylic Acid] | –
8 | 0.63 ± 0.04 | 0.2 ± 0.01 | 0.19 ± 0.01 | 0.047 ± 0.003 | 0.091 ± 0.004 | 0.025 ± 0.001 | – | 0.25 ± 0.02 | 0.094 ± 0.007 | N[C@H](C[C@H]1CC(C(=O)O)=NN1c1ccc(Br)cc1)C(=O)O [4c, (S)-5-((R)-2-Amino-2-carboxyethyl)-1-(4-bromophenyl)-4,5-dihydro-1H-pyrazole-3-carboxylic Acid] | –
9 | – | – | 0.56 ± 0.02 | 0.14 ± 0.01 | 0.91 ± 0.08 | 0.25 ± 0.02 | – | 0.7 ± 0.04 | 0.27 ± 0.02 | N[C@H](C[C@H]1CC(C(=O)O)=NN1c1ccc(I)cc1)C(=O)O [4d, (S)-5-((R)-2-Amino-2-carboxyethyl)-1-(4-iodophenyl)-4,5-dihydro-1H-pyrazole-3-carboxylic Acid] | –
10 | – | 0.44 ± 0.02 | 0.38 ± 0.02 | 0.096 ± 0.005 | 0.18 ± 0.01 | 0.048 ± 0.003 | 5.3 | 0.69 ± 0.05 | 0.25 ± 0.02 | Cc1ccc(N2N=C(C(=O)O)C[C@@H]2C[C@@H](N)C(=O)O)cc1 [4e, (S)-5-((R)-2-Amino-2-carboxyethyl)-1-p-tolyl-4,5-dihydro-1H-pyrazole-3-carboxylic Acid] | –
